Source: patent US20140243350A1, “USE OF SEROTONIN RECEPTOR AGONISTS FOR TREATMENT OF MOVEMENT DISORDERS” (CONTERA PHARMA APS, priority 2011, published 2014)
Like-named read-outs stand apart in the source and are kept apart here.

How the values were obtained:
[1] = test system: unilaterally 6-OHDA-lesioned rats; conditions: buspirone alone 0.5 mg/kg i.p.
From the text: 6-OHDA (6-hydroxydopamine) is a neurotoxin that selectively kills dopaminergic and noradrenergic neurons and induces a reduction of dopamine levels in the brain. […] These are axial, limb and oral movements that occur only on the body side that is […] to the lesion.
In the mild cases: lateral flexion of the neck or torsional movements of the upper trunk towards the side contralateral to the lesion. With repeated injection of L-DOPA, this movement may develop into a pronounced and continuous dystonia-like axial torsion. […] In mild cases: hyperkinetic, jerky stepping movements of the forelimb contralateral to the lesion, or small circular movements of the forelimb to and from the snout.

[2] = test system: patients treated with neuroleptics; conditions: open study, relative high doses; cited from earlier work
LID model rats = conditions: buspirone alone 0.2 mg/kg s.c., 11 min before AIM test; FIG. 8A
naïve rats = conditions: retigabine alone 10 mg/kg i.p.; for total move distance (locomotor activity) in open field test: FIG. 6; for total velocity (locomotor activity) in open field test: FIG. 7; for locomotor activity (moving distance and velocity) in open field test: FIGS. 6 and 7
Experimental: Species: 60 Sprague-Dawley male rats (180-220 g, bred in house, originally from SLAC Labortory Animal Co. Ltd) at 9-week of age.
Administration and dose regimen for the groups of animals (each comprising 10 rats):
Vehicle: 10% Tween 80, i.p., 30 min before test, n=10. Buspirone 1: Buspirone (From Sigma, Cat. No. B7148, Lot. No. 042K1763Z) 1 mg/kg, i.p. 30 min before test, n=10. Buspirone 2: Buspirone 2 mg/kg, i.p. 30 min before test, n=10.
Rats were put in open-field chambers (dimensions 40 cm×40 cm×40 cm) 30 minutes after dosing. After a 15 minutes habituation, locomotion were recorded and analyzed by Enthovision Video Tracking Software (Noldus Information Technology, Netherlands) for 60 minutes. All locomotor activities were done during dark phase and to eliminate olfactory cues, the arena was thoroughly cleaned with 70% v/v ethanol between each test.
Data statistics: The total locomotor activity is expressed as total moved distance (cm) and average velocity (cm/s) every 10 minutes during 60 minutes. The data were analyzed using One-Way ANOVA and the Tukey post-hoc test. The locomotor activity in six time point is expressed as moved distance (cm) and average velocity (cm/s) every 10 minutes. The data were analyzed using One-Way ANOVA and the Tukey post-hoc test in each time point.

Row | SMILES | abnormal involuntary movements (AIM), sum of Lo, Ax, Li and Ol scores per testing session, time course ([1]; FIG. 1, vs vehicle) | AUC (20-60 min) of total AIM (Lo+Ax+Li+Ol) ([1]; FIG. 2) | AUC (20-60 min) of locomotive limb (Li) AIM scores ([1]; FIG. 3) | AUC (20-60 min) of locomotive Axial (Ax) AIM scores ([1]; FIG. 4) | AUC (20-60 min) of Orolingual (OL) AIM scores ([1]; FIG. 5) | effects on tardive dyskinesia, Parkinsonism and akathisia [2] | AUC (10-190 min) of total AIM (Lo+Ax+Li+Ol) (LID model rats) | total move distance (locomotor activity) in open field test (naïve rats; after 20 to 60 minutes) | total velocity (locomotor activity) in open field test (naïve rats; after 20 to 60 minutes) | total velocity (locomotor activity) in open field test (naïve rats; after 10 minutes, vs vehicle) | locomotor activity (moving distance and velocity) in open field test (naïve rats; after 20 mins) | locomotor activity (moving distance and velocity) in open field test (naïve rats; initially (after 10 min)) | total move distance (locomotor activity) in open field test (naïve rats; initially, vs vehicle)
1 | O=C1CC2(CCCC2)CC(=O)N1CCCCN1CCN(c2ncccn2)CC1 [buspirone, 8-[4-(4-pyrimidin-2-ylpiperazin-1-yl)butyl]-8-azaspiro[4.5]decane-7,9-dione] | partially reduced | partially reduced | did not have an effect | partially reduced | significantly reduced | has effects | small effect | – | – | – | – | – | –
2 | CCOC(=O)Nc1ccc(NCc2ccc(F)cc2)cc1N [retigabine, N-(2-amino-4-(4-fluorobenzylamino)-phenylcarbamic acid) ethyl ester] | – | – | – | – | – | – | – | no significant differences | no significant differences | significantly inhibit | no significant difference | significantly inhibit | significantly inhibit
